# Measured values from patent US6649762B1, “Crystal modification C of 8-cyano-1-cyclopropyl-7-(1S,6S-2,8-diazabicyclo-[4.3.0]nonan-8-yl)-6-fluoro-1,4-dihyro-4-oxo-3-quinoline carboxylic” (Bayer Aktiengesellschaft, priority 1999, dated 2003).
# How the values were obtained:
# pathogenic bacteria = experiment: activity against pathogenic bacteria; conditions: area of human or veterinary medicine
# [1] = storage stability of the crystal modification; type: physicochemical; conditions: prolonged storage
# [2] = hygroscopicity of the solid; type: physicochemical; conditions: powder obtained by the known preparation process
SMILES,activity against pathogenic bacteria (pathogenic bacteria),stability of the crystal modification (change into another crystal modification or the amorphous form) [1],hygroscopicity [2]
"N#Cc1c(N2C[C@@H]3CCCN[C@@H]3C2)c(F)cc2c(=O)c(C(=O)O)cn(C3CC3)c12 [CCDC of the crystal modification C, 8-cyano-1-cyclopropyl-7-(1S,6S-2,8-diazabicyclo[4.3.0]nonan-8-yl)-6-fluoro-1,4-dihydro-4-oxo-3-quinolinecarboxylic acid]",highly active,does not change into another crystal modification or the amorphous form,
"N#Cc1c(N2C[C@@H]3CCCN[C@@H]3C2)c(F)cc2c(=O)c(C(=O)O)cn(C3CC3)c12 [partially amorphous powder, 8-cyano-1-cyclopropyl-7-(1S,6S-2,8-diazabicyclo[4.3.0]nonan-8-yl)-6-fluoro-1,4-dihydro-4-oxo-3-quinolinecarboxylic acid]",,,hygroscopic
